Measured values taken from US8563553B2, “Compounds and compositions as protein kinase inhibitors” (Novartis AG, priority 2009, dated 2013).

The compounds below were run against b-Raf(V600E) (Homo sapiens (Human), UniProt P15056, V600E) (assay: Raf/Mek Amplified Luminescence Proximity Homogeneous Assay (Alpha Screen)). Conditions: b-Raf(V600E) approximately 4 pM; biotinylated Mek, kinase dead approximately 10 nM; ATP 10 μM; pre-incubation 60 minutes; reaction 3 hours at room temperature; read-out: mut-B-RAF IC50.
Sequence of b-Raf(V600E) (P15056 whole entry V600E): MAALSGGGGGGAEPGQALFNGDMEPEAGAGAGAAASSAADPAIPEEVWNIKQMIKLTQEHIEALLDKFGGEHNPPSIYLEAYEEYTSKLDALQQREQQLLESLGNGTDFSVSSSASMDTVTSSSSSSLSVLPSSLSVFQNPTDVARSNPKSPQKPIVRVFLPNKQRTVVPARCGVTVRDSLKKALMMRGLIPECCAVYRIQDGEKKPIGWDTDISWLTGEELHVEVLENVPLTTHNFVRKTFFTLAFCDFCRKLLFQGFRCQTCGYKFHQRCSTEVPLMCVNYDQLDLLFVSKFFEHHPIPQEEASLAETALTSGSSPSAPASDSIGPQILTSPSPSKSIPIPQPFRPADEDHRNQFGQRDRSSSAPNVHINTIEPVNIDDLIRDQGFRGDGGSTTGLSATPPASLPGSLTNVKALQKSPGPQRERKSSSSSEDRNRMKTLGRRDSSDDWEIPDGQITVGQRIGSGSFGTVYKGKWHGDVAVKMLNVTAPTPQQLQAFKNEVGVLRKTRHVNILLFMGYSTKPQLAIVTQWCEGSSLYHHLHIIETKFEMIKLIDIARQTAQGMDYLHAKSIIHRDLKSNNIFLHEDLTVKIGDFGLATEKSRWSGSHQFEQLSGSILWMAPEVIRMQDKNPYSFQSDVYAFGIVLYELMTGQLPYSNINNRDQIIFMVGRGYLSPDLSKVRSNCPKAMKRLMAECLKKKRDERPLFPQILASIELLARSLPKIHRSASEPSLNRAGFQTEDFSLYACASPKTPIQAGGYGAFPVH
Type: biochemical
Method in brief: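 Raf pre-incubated with compound and kinase-dead biotinylated Mek (~10 nM) for 60 min, room temperature, in 50 mM Tris pH 7.5, 15 mM MgCl2, 0.01% BSA, 1 mM DTT; ATP-started reaction 1 or 3 h, EDTA stop. Phospho-MEK detected by anti-p-MEK1/2 AlphaScreen; IC50 by non-linear regression.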

SMILES | IC50 [nM]
CS(=O)(=O)Nc1cc(Cl)cc(-c2nc(C3CC3)[nH]c2-c2ccnc(NCCC#N)n2)c1F [Example 2A, N-(5-Chloro-3-(5-(2-(2-cyanoethylamino)pyrimidin-4-yl)-2-cyclopropyl-1H-imidazol-4-yl)-2-fluorophenyl)methanesulfonamide] | 0.08
COC(=O)N[C@@H](C)CNc1nccc(-c2[nH]c(C(C)(C)C)nc2-c2cccc(NS(=O)(=O)C3CC3)c2F)n1 [Example 2B, (S)-Methyl 1-(4-(2-tert-butyl-4-(3-(cyclopropanesulfonamido)-2-fluorophenyl)-1H-imidazol-5-yl)pyrimidin-2-ylamino)propan-2-ylcarbamate] | 0.27
COC(=O)N[C@@H](C)CNc1nccc(-c2[nH]c(C(C)(C)C)nc2-c2cccc(NS(C)(=O)=O)c2F)n1 [Example 2C, (S)-Methyl 1-(4-(2-tert-butyl-4-(2-fluoro-3-(methylsulfonamido)phenyl)-1H-imidazol-5-yl)pyrimidin-2-ylamino)propan-2-ylcarbamate] | 0.61
COC(=O)N[C@@H](C)CNc1nccc(-c2[nH]c(C(C)(C)C)nc2-c2cccc(NS(=O)(=O)C(C)C)c2F)n1 [Example 2D] | 0.78
CS(=O)(=O)Nc1cccc(-c2nc(C3CC3)[nH]c2-c2ccnc(NCCC#N)n2)c1F [Example 2E, N-(3-(5-(2-(2-Cyanoethylamino)pyrimidin-4-yl)-2-cyclopropyl-1H-imidazol-4-yl)-2-fluorophenyl)methanesulfonamide] | 4
COC(=O)N[C@@H](C)CNc1nccc(-c2[nH]c(C3CC3)nc2-c2c(F)ccc(NS(C)(=O)=O)c2Cl)n1 [Example 2F, Methyl (2S)-1-(4-(4-(2-chloro-6-fluoro-3-(methylsulfonamido)phenyl)-2-cyclopropyl-1H-imidazol-5-yl)pyrimidin-2-ylamino)propan-2-ylcarbamate] | 5
CS(=O)(=O)Nc1cccc(-c2nc(C3CC3)[nH]c2-c2ccnc(NCC3(C#N)CC3)n2)c1Cl [Example 2G, N-(2-Chloro-3-(5-(2-((1-cyanocyclopropyl)methylamino)pyrimidin-4-yl)-2-cyclopropyl-1H-imidazol-4-yl)phenyl)methanesulfonamide] | 35
Nc1nccc(-c2[nH]c(C3CC3)nc2-c2cccc(NS(=O)(=O)c3c(F)cccc3F)c2Cl)n1 [Example 2H, N-(3-(5-(2-aminopyrimidin-4-yl)-2-cyclopropyl-1H-imidazol-4-yl)-2-chlorophenyl)-2,6-difluorobenzenesulfonamide] | 1
O=S(=O)(Nc1cc(F)cc(-c2nc(C3CC3)[nH]c2-c2ccncn2)c1Cl)c1c(F)cccc1F [Example 2I, N-(2-Chloro-3-(2-cyclopropyl-5-(pyrimidin-4-yl)-1H-imidazol-4-yl)-5-fluorophenyl)-2,6-difluorobenzenesulfonamide] | 1
CS(=O)(=O)Nc1cc(F)cc(-c2nc(C3CC3)[nH]c2-c2ccncn2)c1Cl [Example 2J, N-(2-Chloro-3-(2-cyclopropyl-5-(pyrimidin-4-yl)-1H-imidazol-4-yl)-5-fluorophenyl)methanesulfonamide] | 87
CCCS(=O)(=O)Nc1cc(F)cc(-c2nc(C3CC3)[nH]c2-c2ccncn2)c1Cl [Example 2K, N-(2-Chloro-3-(2-cyclopropyl-5-(pyrimidin-4-yl)-1H-imidazol-4-yl)-5-fluorophenyl)propane-1-sulfonamide] | 4
CNc1nccc(-c2[nH]c(C3CC3)nc2-c2cccc(NS(C)(=O)=O)c2F)n1 [Example 3A-2, N-(3-(2-cyclopropyl-5-(2-(methylamino)pyrimidin-4-yl)-1H-imidazol-4-yl)-2-fluorophenyl)methanesulfonamide] | 578
C[C@H](O)CNc1nccc(-c2[nH]c(C3CC3)nc2-c2cccc(NS(C)(=O)=O)c2F)n1 [Example 3B, (S)—N-(3-(2-cyclopropyl-5-(2-(2-hydroxypropylamino)pyrimidin-4-yl)-1H-imidazol-4-yl)-2-fluorophenyl)methanesulfonamide] | 28
CCCS(=O)(=O)Nc1cccc(-c2nc(C3CC3)[nH]c2-c2ccnc(NC[C@H](C)NC(=O)OC)n2)c1Cl [Example 4A-3, (S)-methyl 1-(4-(4-(2-chloro-3-(propylsulfonamido)phenyl)-2-cyclopropyl-1H-imidazol-5-yl)pyrimidin-2-ylamino)propan-2-ylcarbamate] | 0.13
CCCS(=O)(=O)Nc1cccc(-c2nc(C(C)(C)C)[nH]c2-c2ccnc(NC[C@H](C)NC(=O)OC)n2)c1F [Example 4B, (S)-Methyl 1-(4-(2-tert-butyl-4-(2-fluoro-3-(propylsulfonamido)phenyl)-1H-imidazol-5-yl)pyrimidin-2-ylamino)propan-2-ylcarbamate] | 0.38
CCCS(=O)(=O)Nc1cccc(-c2nc(C3CC3)[nH]c2-c2ccnc(NC[C@H](C)NC(=O)OC)n2)c1F [Example 4C, (S)-Methyl 1-(4-(2-cyclopropyl-4-(2-fluoro-3-(propylsulfonamido)phenyl)-1H-imidazol-5-yl)pyrimidin-2-ylamino)propan-2-ylcarbamate] | 0.16
COC(=O)N[C@@H](C)CNc1nccc(-c2[nH]c(C3CC3)nc2-c2cc(C)cc(NS(=O)(=O)C(C)C)c2)n1 [Example 4D, (S)-Methyl 1-(4-(2-cyclopropyl-4-(3-methyl-5-(1-methylethylsulfonamido)phenyl)-1H-imidazol-5-yl)pyrimidin-2-ylamino)propan-2-ylcarbamate] | 0.96
COC(=O)N[C@@H](C)CNc1nccc(-c2[nH]c(C(C)(C)C)nc2-c2cccc(NS(=O)(=O)CCC(F)(F)F)c2F)n1 [Example 4E, (S)-Methyl 1-(4-(2-tert-butyl-4-(2-fluoro-3-(3,3,3-trifluoropropylsulfonamido)phenyl)-1H-imidazol-5-yl)pyrimidin-2-ylamino)propan-2-ylcarbamate] | 1.08
CCCS(=O)(=O)Nc1cc(Cl)cc(-c2[nH]c(C(C)(C)C)nc2-c2ccnc(NC[C@H](C)NC(=O)OC)n2)c1F [Example 4F, (S)-Methyl 1-(4-(2-tert-butyl-5-(5-chloro-2-fluoro-3-(propylsulfonamido)phenyl)-1H-imidazol-4-yl)pyrimidin-2-ylamino)propan-2-ylcarbamate] | 0.53
CCCS(=O)(=O)Nc1cccc(-c2nc(C3CC3)[nH]c2-c2ccnc(NCCC#N)n2)c1F [Example 4G, N-(3-(5-(2-(2-Cyanoethylamino)pyrimidin-4-yl)-2-cyclopropyl-1H-imidazol-4-yl)-2-fluorophenyl)propane-1-sulfonamide] | 0.13
CCCS(=O)(=O)Nc1cccc(-c2nc(C3CC3)[nH]c2-c2ccnc(NCCC(N)=O)n2)c1F [Example 4H, 3-(4-(2-Cyclopropyl-4-(2-fluoro-3-(propylsulfonamido)phenyl)-1H-imidazol-5-yl)pyrimidin-2-ylamino)propanamide] | 2
CCCS(=O)(=O)Nc1cccc(-c2nc(C3CC3)[nH]c2-c2ccnc(NC[C@H](C)NC(=O)OC)n2)c1 [Example 4J, (S)-Methyl 1-(4-(2-cyclopropyl-4-(3-(propylsulfonamido)phenyl)-1H-imidazol-5-yl)pyrimidin-2-ylamino)propan-2-ylcarbamate] | 1
COC(=O)N[C@@H](C)CNc1nccc(-c2[nH]c(C3CC3)nc2-c2cccc(NS(C)(=O)=O)c2)n1 [Example 4K, (S)-Methyl 1-(4-(2-cyclopropyl-4-(3-(methylsulfonamido)phenyl)-1H-imidazol-5-yl)pyrimidin-2-ylamino)propan-2-ylcarbamate] | 8
COC(=O)N[C@@H](C)CNc1nccc(-c2[nH]c(C3CC3)nc2-c2cc(F)cc(NS(C)(=O)=O)c2Cl)n1 [Example 5A, (S)-methyl 1-(4-(4-(2-chloro-5-fluoro-3-(methylsulfonamido)phenyl)-2-cyclopropyl-1H-imidazol-5-yl)pyrimidin-2-ylamino)propan-2-ylcarbamate] | 0.4
